Assay results: patent US7538241B2, “Hsp90 family protein inhibitors” (Kyowa Hakko Kogyo Co., Ltd., priority 2003, dated 2009)

test system: human chronic myelocytic leukemia-derived K562 cells; assay: Cell growth inhibition test with K562 cells (WST-1); assay type: cell-based; conditions: 72 hours, read-out: 50% growth inhibition concentration (GI50)
Experimental: In a 96-well plate (Nunc), human chronic myelocytic leukemia-derived K562 cells were sown in an amount of 1500 cells/well, and pre-incubated in 10% FCS-containing Rosewell Park Memorial Institute's Medium (RPMI) 1640 (Nissui) (incubation medium) in a 5% carbon dioxide incubator at 37° C. for 5 hours. Next, a DMSO solution of a test compound controlled at 10 mmol/L was stepwise diluted with the incubation medium, and added to each well in a total amount of 100 μL/well, and further incubated in the 5% carbon dioxide incubator at 37° C. for 72 hours. After the incubation, WST-1-labeled mixture (Rosh Diagnostic) diluted 2-fold with the incubation medium was added thereto in an amount of 20 μL/well, and incubated in the 5% carbon dioxide incubator at 37° C. for 2 hours. Using a microplate spectrophotometer (Biorad's Model 550), the absorbance at 450 nm and 655 nm of each well was measured. The cell growth inhibition activity of the test compound was indicated by the 50% growth inhibition concentration (GI50) thereof, like in Test Example 2.

SMILES | GI50 [µM]
CCc1c(O)cc(O)c(-c2cccc(C(=O)NC)c2)c1CC1O[C@@H](CO)[C@H](CO)O1 [Compound 289, 5-{[(4S,5S)-4,5-Bis(hydroxymethyl)-1,3-dioxolan-2-yl]methyl}-6-ethyl-4-[3-(methylcarbamoyl)phenyl]benzene-1,3-diol] | ≤ 50
CCc1c(O)cc(O)c(-c2cccc(C(=O)N(C)C)c2)c1CC1O[C@@H](CO)[C@H](CO)O1 [Compound 290, 5-{[(4S,5S)-4,5-Bis(hydroxymethyl)-1,3-dioxolan-2-yl]methyl}-4-[3-(dimethylcarbamoyl)phenyl]-6-ethylbenzene-1,3-diol] | ≤ 50
CCc1c(O)cc(O)c(-c2ccc(F)c(C)c2)c1CC1O[C@H](CO)[C@@H](CO)O1 [Compound 291, 5-{[(4R,5R)-4,5-bis(hydroxymethyl)-1,3-dioxolan-2-yl]methyl}-6-ethyl-4-(4-fluoro-3-methylphenyl)benzene-1,3-diol] | ≤ 50
CCc1c(O)cc(O)c(-c2cccc(C(=O)N(C)C)c2)c1CC1O[C@H](CO)[C@@H](CO)O1 [Compound 292, 5-{[(4R,5R)-4,5-bis(hydroxymethyl)-1,3-dioxolan-2-yl]methyl}-4-[3-(dimethylcarbamoyl)phenyl]-6-ethylbenzene-1,3-diol] | ≤ 50
CCc1c(O)cc(O)c(-c2ccc(F)c(Cl)c2)c1CC1O[C@H](CO)[C@@H](CO)O1 [Compound 293, 5-{[(4R,5R)-4,5-bis(hydroxymethyl)-1,3-dioxolan-2-yl]methyl}-4-(3-chloro-4-fluorophenyl)-6-ethylbenzene-1,3-diol] | ≤ 50
CCc1c(O)cc(O)c(-c2cccc(C(=O)NC)c2)c1CC1O[C@H](CO)[C@@H](CO)O1 [Compound 294, 5-{[(4R,5R)-4,5-Bis(hydroxymethyl)-1,3-dioxolan-2-yl]methyl}-6-ethyl-4-[3-(methylcarbamoyl)phenyl]benzene-1,3-diol] | ≤ 50
CCc1c(O)cc(O)c(-c2cccc(C(N)=O)c2)c1CC1O[C@H](CO)[C@@H](CO)O1 [Compound 295, 5-{[(4R,5R)-4,5-bis(hydroxymethyl)-1,3-dioxolan-2-yl]methyl}-4-(3-carbamoylphenyl)-6-ethylbenzene-1,3-diol] | ≤ 50
CCc1c(O)cc(O)c(-c2cccc(F)c2)c1CC1O[C@H](CO)[C@@H](CO)O1 [Compound 296, 5-{[(4R,5R)-4,5-bis(hydroxymethyl)-1,3-dioxolan-2-yl]methyl}-6-ethyl-4-(3-fluorophenyl)benzene-1,3-diol] | ≤ 50
CCc1c(O)cc(O)c(-c2cccc(O)c2)c1CC1O[C@H](CO)[C@@H](CO)O1 [Compound 298, 5-{[(4R,5R)-4,5-Bis(hydroxymethyl)-1,3-dioxolan-2-yl]methyl}-6-ethyl-4-(3-hydroxyphenyl)benzene-1,3-diol] | ≤ 50
CCc1c(O)cc(O)c(-c2ccc(F)c(F)c2)c1CC1O[C@@H](CO)[C@H](CO)O1 [Compound 299, 5-{[(4S,5S)-4,5-bis(hydroxymethyl)-1,3-dioxolan-2-yl]methyl}-4-(3,4-difluorophenyl)-6-ethylbenzene-1,3-diol] | ≤ 50
CCc1c(O)cc(O)c(-c2ccc(F)c(Cl)c2)c1CC1O[C@@H](CO)[C@H](CO)O1 [Compound 301, 5-{[(4S,5S)-4,5-Bis(hydroxymethyl)-1,3-dioxolan-2-yl]methyl}-4-(3-chloro-4-fluorophenyl)-6-ethylbenzene-1,3-diol] | ≤ 50
CCc1c(O)cc(O)c(-c2cccc(C(=O)NCCOC)c2)c1CC1O[C@H](CO)[C@@H](CO)O1 [Compound 303, 5-{[(4R,5R)-4,5-Bis(hydroxymethyl)-1,3-dioxolan-2-yl]methyl}-6-ethyl-4-[3-(2-methoxyethyl)carbamoylphenyl]benzene-1,3-diol] | ≤ 50
CCc1c(O)cc(O)c(-c2cccc(C(=O)NCCO)c2)c1CC1O[C@H](CO)[C@@H](CO)O1 [Compound 304, 5-{[(4R,5R)-4,5-Bis(hydroxymethyl)-1,3-dioxolan-2-yl]methyl}-6-ethyl-4-[3-(2-hydroxyethyl)carbamoylphenyl]benzene-1,3-diol] | ≤ 50
CCc1c(O)cc(O)c(-c2cccc(C(=O)NC3CC3)c2)c1CC1O[C@H](CO)[C@@H](CO)O1 [Compound 305, 5-{[(4R,5R)-4,5-Bis(hydroxymethyl)-1,3-dioxolan-2-yl]methyl}-4-[3-(2-cyclopropylcarbamoyl)phenyl]-6-ethylbenzene-1,3-diol] | ≤ 50
CCCNC(=O)c1cccc(-c2c(O)cc(O)c(CC)c2CC2O[C@H](CO)[C@@H](CO)O2)c1 [Compound 306, 5-{[(4R,5R)-4,5-Bis(hydroxymethyl)-1,3-dioxolan-2-yl]methyl}-6-ethyl-4-[3-(propylcarbamoyl)phenyl]benzene-1,3-diol] | ≤ 50
CCc1c(O)cc(O)c(-c2cccc(O)c2)c1CC1O[C@H](COC)[C@@H](COC)O1 [Compound 307, 5-{[(4R,5R)-4,5-Bis(methoxymethyl)-1,3-dioxolan-2-yl]methyl}-6-ethyl-4-(3-hydroxyphenyl)benzene-1,3-diol] | ≤ 50
CCc1c(O)cc(O)c(-c2ccccc2)c1CC1O[C@H](COC)[C@@H](COC)O1 [Compound 308, 5-{[(4R,5R)-4,5-Bis(methoxymethyl)-1,3-dioxolan-2-yl]methyl}-6-ethyl-4-phenylbenzene-1,3-diol] | ≤ 50

SMILES | GI50 [µM]
CCc1c(O)cc(O)c(-c2ccc(OC)c(OC)c2)c1CCOCCO [Compound 309, 6-Ethyl-5-[2-(2-hydroxyethoxy)ethyl]-4-(3,4-dimethoxyphenyl)benzene-1,3-diol] | ≤ 50
CC(=O)c1c(O)cc(O)c(-c2cccc(O)c2)c1CCOCCO [Compound 310, 1-{2,4-Dihydroxy-6-[2-(2-hydroxyethoxy)ethyl]-5-(3-hydroxyphenyl)phenyl}ethanone] | ≤ 50
CCc1c(O)cc(O)c(-c2ccc(F)c(Cl)c2)c1CCOCCO [Compound 312, 4-(3-Chloro-4-fluorophenyl)-6-ethyl-5-[2-(2-hydroxyethoxy)ethyl]benzene-1,3-diol] | ≤ 50
CCc1c(O)cc(O)c(-c2ccc(F)c(C)c2)c1CCOCCO [Compound 314, 6-Ethyl-4-(4-fluoro-3-methylphenyl)-5-[2-(2-hydroxyethoxy)ethyl]benzene-1,3-diol] | ≤ 50
CCc1c(O)cc(O)c(-c2ccccc2)c1Cc1n[nH]c(=O)o1 [Compound 315, 5-[(2-ethyl-3,5-dihydroxy-6-phenylphenyl)methyl]-3H-1,3,4-oxadiazol-2-one] | ≤ 50
CCc1c(O)cc(O)c(-c2ccccc2)c1CCN1CCCC1CO (stereo not drawn) [Compound 316, 6-Ethyl-5-{2-[2-(hydroxymethyl)pyrrolidin-1-yl]ethyl}-4-phenylbenzene-1,3-diol] | ≤ 50
CCc1c(O)cc(O)c(-c2ccccc2)c1Cc1nn(CCO)c(=O)o1 [Compound 318, 5-[(2-Ethyl-3,5-dihydroxy-6-phenylphenyl)methyl]-3-(2-hydroxyethyl)-3H-1,3,4-oxadiazol-2-one] | ≤ 50
CCc1c(O)cc(O)c(-c2ccccc2)c1CCN1C(=O)OCC1C(=O)OC (stereo not drawn) [Compound 319, Methyl 3-[2-(2-ethyl-3,5-dihydroxy-6-phenylphenyl)ethyl]-2-oxo-1,3-oxazolidine-4-carboxylate] | ≤ 50
CCc1c(O)cc(O)c(-c2ccccc2)c1CCN1CCC(O)C1 (stereo not drawn) [Compound 321, 6-Ethyl-5-[2-(3-hydroxypyrrolidin-1-yl)ethyl]-4-phenylbenzene-1,3-diol] | ≤ 50
CCc1c(O)cc(O)c(-c2ccccc2)c1CC(=O)N(CCO)CCCOC [Compound 322, 2-(2-Ethyl-3,5-dihydroxy-6-phenylphenyl)-N-(2-hydroxyethyl)-N-(3-methoxypropyl)acetamide] | ≤ 50
CCc1c(O)cc(O)c(-c2cccc(OC)c2)c1Cc1nn(CCO)c(=O)o1 [Compound 323, 5-{[2-Ethyl-3,5-dihydroxy-6-(3-methoxyphenyl)phenyl]methyl}-3-(2-hydroxyethyl)-3H-1,3,4-oxadiazol-2-one] | ≤ 50
CCc1c(O)cc(O)c(-c2cccc(O)c2)c1Cc1nn(CCOC)c(=O)o1 [Compound 324, 5-{[2-Ethyl-3,5-dihydroxy-6-(3-hydroxyphenyl)phenyl]methyl}-3-(2-methoxyethyl)-3H-1,3,4-oxadiazol-2-one] | ≤ 50
CCOC(=O)Oc1cc(OC(=O)OCC)c(-c2ccccc2)c(CCOCCOC)c1CC [Compound 325, 1,5-Bis(ethoxycarbonyloxy)-4-ethyl-3-[2-(2-methoxyethoxy)ethyl]-2-phenylbenzene] | ≤ 50
CCc1c(OC(=O)N(C)C)cc(OC(=O)N(C)C)c(-c2ccccc2)c1CCOCCOC [Compound 326, 1,5-Bis(dimethylcarbamoyloxy)-4-ethyl-3-[2-(2-methoxyethoxy)ethyl]-2-phenylbenzene] | ≤ 50
CCc1c(OC(=O)N2CCN(C)CC2)cc(O)c(-c2ccccc2)c1CCOCCOC [Compound 327, 4-Ethyl-3-[2-(2-methoxyethoxy)ethyl]-5-(4-methylpiperazin-1-ylcarbonyloxy)-2-phenylbenzen-1-ol] | ≤ 50
CCc1c(OC(C)=O)cc(OC(C)=O)c(-c2ccccc2)c1CCOCCOC [Compound 328, 1,5-Bis(acetyloxy)-4-ethyl-3-[2-(2-methoxyethoxy)ethyl]-2-phenylbenzene] | ≤ 50
